Reference: PubChem BioAssay AID248 (DTP/NCI, 2004)
Where “and” joins values, the source holds several entries; their conditions need not be identical. Equal entries are not always repeated. Toxic doses and inconclusive results are not listed. Cut-off read from the data, not from the text of the source: active = T/C of 150% or more; inactive = T/C below 125%.

Tested on: L1210 leukemia ip in BDF1 mice, survival T/C
Assay: NCI In Vivo Anticancer Drug Screen. Data for tumor model L1210 Leukemia (intraperitoneal) in B6D2F1 (BDF1) mice
Conditions: endpoint: mean survival time, higher = longer survival
How it was run: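 Transplanted-tumor mice were given test agent; controls received vehicle only. Survival readings from the two groups were divided (treated over control).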

[1] = dose: 100.0 mg/kg/injection, schedule: Q01DX001 (ip), vehicle: saline with Tween-80
[2] = dose: 200.0 mg/kg/injection, schedule: Q01DX001 (ip), vehicle: saline with Tween-80
[3] = dose: 400.0 mg/kg/injection, schedule: Q01DX001 (ip), vehicle: saline with Tween-80
[4] = dose: 100.0 mg/kg/injection, schedule: Q01DX009 (ip), vehicle: Klucel (hydroxypropylcellulose) (HPC)
[5] = dose: 100.0 mg/kg/injection, schedule: Q04DX003 (ip), vehicle: Klucel (hydroxypropylcellulose) (HPC)
[6] = dose: 200.0 mg/kg/injection, schedule: Q01DX009 (ip), vehicle: Klucel (hydroxypropylcellulose) (HPC)
[7] = dose: 200.0 mg/kg/injection, schedule: Q04DX003 (ip), vehicle: Klucel (hydroxypropylcellulose) (HPC)
[8] = dose: 400.0 mg/kg/injection, schedule: Q04DX003 (ip), vehicle: Klucel (hydroxypropylcellulose) (HPC)
[9] = dose: 100.0 mg/kg/injection, schedule: Q01DX009 (ip), vehicle: saline
[10] = dose: 100.0 mg/kg/injection, schedule: Q04DX003 (ip), vehicle: saline
[11] = dose: 100.0 mg/kg/injection, schedule: Q01DX009 (ip), vehicle: saline with Tween-80
[12] = dose: 200.0 mg/kg/injection, schedule: Q01DX009 (ip), vehicle: saline with Tween-80
[13] = dose: 400.0 mg/kg/injection, schedule: Q01DX009 (ip), vehicle: Klucel (hydroxypropylcellulose) (HPC)
[14] = dose: 50.0 mg/kg/injection, schedule: Q01DX009 (ip), vehicle: Klucel (hydroxypropylcellulose) (HPC)
[15] = dose: 100.0 mg/kg/injection, schedule: Q01DX001 (ip), vehicle: Klucel (hydroxypropylcellulose) (HPC)
[16] = dose: 200.0 mg/kg/injection, schedule: Q01DX001 (ip), vehicle: Klucel (hydroxypropylcellulose) (HPC)
[17] = dose: 12.5 mg/kg/injection, schedule: Q04DX003 (ip), vehicle: saline
[18] = dose: 25.0 mg/kg/injection, schedule: Q04DX003 (ip), vehicle: saline
[19] = dose: 100.0 mg/kg/injection, schedule: Q04DX002 (ip), vehicle: saline with Tween-80
[20] = dose: 200.0 mg/kg/injection, schedule: Q04DX002 (ip), vehicle: saline with Tween-80
[21] = dose: 400.0 mg/kg/injection, schedule: Q04DX002 (ip), vehicle: saline with Tween-80

Measured: T/C

O=C(O)c1ccccc1C(=O)Nc1ccccc1[N+](=O)[O-]
inactive: [1] 91 % of control | [2] 91 % of control | [3] 91 % of control

CCOC(=O)CC(=O)Cc1cccc([N+](=O)[O-])c1
inactive: [4] 91 % of control | [5] 100 % of control | [6] 88 % of control | [7] 107 % of control | [8] 107 % of control

CCN(CC)C(=O)NC1CCCN1C (stereo unspecified)
inactive: [9] 96 % of control | [10] 97 % of control | dose: 200.0 mg/kg/injection, schedule: Q01DX009 (ip), vehicle: saline 101 % of control | dose: 200.0 mg/kg/injection, schedule: Q04DX003 (ip), vehicle: saline 107 % of control | dose: 400.0 mg/kg/injection, schedule: Q01DX009 (ip), vehicle: saline 109 % of control | dose: 400.0 mg/kg/injection, schedule: Q04DX003 (ip), vehicle: saline 103 % of control

CC(=O)Oc1c(Cl)cc(Cl)cc1Cl
inactive: [11] 107 % of control | [12] 100 % of control | dose: 400.0 mg/kg/injection, schedule: Q01DX009 (ip), vehicle: saline with Tween-80 100 % of control

Cc1ccc(Cl)cc1NC(=O)C(Br)C(Br)c1ccccc1 (stereo unspecified)
inactive: [4] 100 % of control | [6] 96 % of control | [13] 104 % of control

C#CC1(NC(=S)NC(=O)c2ccccc2)CCCCC1
inactive: dose: 25.0 mg/kg/injection, schedule: Q01DX009 (ip), vehicle: Klucel (hydroxypropylcellulose) (HPC) 93 % of control | [14] 94 % of control | [4] 94 % of control and 88 % of control

COc1cc2c(c(Oc3ccc(C)cc3)c1)CN(C)CC2
inactive: [10] 98 % of control

Cc1cccc(C(=O)OCc2ccccc2CN2CCCCC2C)c1 (stereo unspecified)
inactive: [15] 93 % of control | [16] 93 % of control

CCCCCCCCCC(=O)N1CCCC(C)C1 (stereo unspecified)
inactive: dose: 50.0 mg/kg/injection, schedule: Q01DX001 (ip), vehicle: carboxymethylcellulose (CMC) 100 % of control | dose: 50.0 mg/kg/injection, schedule: Q01DX009 (ip), vehicle: carboxymethylcellulose (CMC) 94 % of control | dose: 50.0 mg/kg/injection, schedule: Q04DX003 (ip), vehicle: carboxymethylcellulose (CMC) 101 % of control | dose: 100.0 mg/kg/injection, schedule: Q01DX001 (ip), vehicle: carboxymethylcellulose (CMC) 98 % of control | dose: 100.0 mg/kg/injection, schedule: Q01DX009 (ip), vehicle: carboxymethylcellulose (CMC) 90 % of control and 91 % of control | dose: 100.0 mg/kg/injection, schedule: Q04DX002 (ip), vehicle: carboxymethylcellulose (CMC) 93 % of control and 95 % of control | dose: 100.0 mg/kg/injection, schedule: Q04DX003 (ip), vehicle: carboxymethylcellulose (CMC) 95 % of control | dose: 200.0 mg/kg/injection, schedule: Q01DX001 (ip), vehicle: carboxymethylcellulose (CMC) 94 % of control | dose: 200.0 mg/kg/injection, schedule: Q01DX009 (ip), vehicle: carboxymethylcellulose (CMC) 89 % of control | dose: 200.0 mg/kg/injection, schedule: Q04DX002 (ip), vehicle: carboxymethylcellulose (CMC) 101 % of control and 103 % of control | dose: 200.0 mg/kg/injection, schedule: Q04DX003 (ip), vehicle: carboxymethylcellulose (CMC) 97 % of control | dose: 400.0 mg/kg/injection, schedule: Q04DX002 (ip), vehicle: carboxymethylcellulose (CMC) 92 % of control

NC(Cc1cn(Cc2ccccc2)cn1)C(=O)O (stereo unspecified)
inactive: [17] 109 % of control | [18] 89 % of control | dose: 50.0 mg/kg/injection, schedule: Q04DX003 (ip), vehicle: saline 106 % of control

CNC(Cl)(Cl)NC
inactive: dose: 50.0 mg/kg/injection, schedule: Q01DX009 (ip), vehicle: saline 90 % of control | [9] 87 % of control | dose: 100.0 mg/kg/injection, schedule: Q04DX002 (ip), vehicle: saline 86 % of control | dose: 200.0 mg/kg/injection, schedule: Q04DX002 (ip), vehicle: saline 88 % of control

O=C(Nc1ccc(F)c(Cl)c1)N(CCO)C1CCCCC1
inactive: [5] 101 % of control | [7] 100 % of control | [8] 92 % of control

CN(C)C(=O)Sc1ccc(Cl)cc1S(=O)(=O)F
inactive: [4] 97 % of control | [6] 100 % of control | [13] 89 % of control

c1cc2ccc3ccc[n+]4c3c2[n+](c1)CC4
inactive: dose: 75.0 mg/kg/injection, schedule: Q01DX001 (ip), vehicle: saline 103 % of control

c1ccc(C(C(=Nc2ccc(Cc3ccc(N=C(C(c4ccccc4)c4ccccc4)N4CC4)cc3)cc2)N2CC2)c2ccccc2)cc1
inactive: dose: 70.0 mg/kg/injection, schedule: Q01DX009 (ip), vehicle: saline 103 % of control | dose: 140.0 mg/kg/injection, schedule: Q01DX009 (ip), vehicle: saline 104 % of control | dose: 280.0 mg/kg/injection, schedule: Q01DX009 (ip), vehicle: saline 93 % of control

CCOC(=O)Nc1ccc(Cl)c(Cl)c1
inactive: [4] 98 % of control | [6] 101 % of control | [13] 108 % of control

CC(=O)SC1CS(=O)(=O)CC1SC(C)=O (stereo unspecified)
inactive: [5] 93 % of control | [7] 101 % of control

CC(=O)OCC1OC(N2C(=O)/C(=C/c3ccncc3)SC2=S)C(OC(C)=O)C(OC(C)=O)C1OC(C)=O (stereo unspecified)
inactive: dose: 25.0 mg/kg/injection, schedule: Q01DX005 (ip), vehicle: other 97 % of control | dose: 50.0 mg/kg/injection, schedule: Q01DX005 (ip), vehicle: other 94 % of control | dose: 100.0 mg/kg/injection, schedule: Q01DX005 (ip), vehicle: other 97 % of control | dose: 400.0 mg/kg/injection, schedule: Q01DX005 (ip), vehicle: other 86 % of control

CC(=O)Nc1cccc(S(=O)(=O)F)c1
inactive: dose: 50.0 mg/kg/injection, schedule: Q01DX009 (ip), vehicle: saline with Tween-80 100 % of control | [11] 105 % of control | [12] 88 % of control

CCS(=O)(=O)c1ccc2nnnn2n1
inactive: dose: 6.25 mg/kg/injection, schedule: Q04DX003 (ip), vehicle: saline 103 % of control | [17] 100 % of control | [18] 112 % of control

CCOC(=O)Nc1cc(N(C)CC(O)CN(C)c2ccccc2)c(N)c(N)n1 (stereo unspecified)
inactive: [15] 106 % of control | [16] 107 % of control | dose: 400.0 mg/kg/injection, schedule: Q01DX001 (ip), vehicle: Klucel (hydroxypropylcellulose) (HPC) 105 % of control

CCOC(=O)c1ccc(Nc2nnc(-c3c(OC)cc(OC)cc3OC)s2)cc1
inactive: [19] 93 % of control | [20] 104 % of control | [21] 101 % of control

CCCC1=C(CCC)C1C(=O)O
inactive: [14] 91 % of control | [4] 100 % of control | [5] 103 % of control | [6] 88 % of control | [7] 96 % of control

CCCCCCCNC(=S)OCC
inactive: [19] 100 % of control | [20] 107 % of control | [21] 107 % of control

NS(=O)(=O)c1cc[n+]([O-])c2ccccc12
inactive: [1] 97 % of control | [11] 96 % of control | [2] 97 % of control | [12] 94 % of control | [3] 96 % of control

Nc1nc2c(c(=O)[nH]1)N(Cc1ccccc1)C(CNc1ccc(C(=O)NC(CCC(=O)O)C(=O)O)cc1)CN2 (stereo unspecified)
inactive: dose: 100.0 mg/kg/injection, schedule: Q01DX001 (ip), vehicle: alkali diluted with saline 91 % of control | dose: 200.0 mg/kg/injection, schedule: Q01DX001 (ip), vehicle: alkali diluted with saline 94 % of control | dose: 400.0 mg/kg/injection, schedule: Q01DX001 (ip), vehicle: alkali diluted with saline 100 % of control

NC(=O)c1[nH]cnc1/N=N/N(CCF)CCF
inactive: dose: 1.87 mg/kg/injection, schedule: Q01DX009 (ip), vehicle: other 106 % of control | dose: 3.75 mg/kg/injection, schedule: Q01DX009 (ip), vehicle: other 123 % of control | dose: 10.0 mg/kg/injection, schedule: Q01DX001 (ip), vehicle: other 106 % of control
active: dose: 15.0 mg/kg/injection, schedule: Q01DX009 (ip), vehicle: other 153 % of control
